From patent US4914197A, “Novel phosphoric diesters” (Senju Pharmaceutical Co., Ltd., priority 1986, dated 1990)
“And” between values parts separate entries of the source, which are not always exact repeats. Equal entries are not always repeated.

How the values were obtained:
rabbits eye = assay: Topical antiinflammatory effect, anterior chamber paracentesis inflammation model of the rabbits eye; type: in vivo, female white rabbits; conditions: 0.1% ophthalmic solution; for % Inhibition: inhibition of increase in protein of secondary aqueous humor vs control; for Increase in protein: secondary minus primary aqueous humor (1.5 hours apart), 10 μl at 2, 1 and 0.5 hour before paracentesis, control 25.5
Description: The antiinflammatory effect of the compound according to the present invention was investigated in the anterior chamber paracentesis inflammation model of the rabbits eye.
Method: Using female white rabbits, a 0.1% ophthalmic solution of L-ascorbyl tocopheryl phosphate sodium and, as a control, physiological saline were instilled into the bilateral eyes of rabbits in volumes of 10 μl each at 2, 1 and 0.5 hour before peracentesis and using a 27-gauge needle about 200 μl of anterior chamber aqueous humor was collected from each eye (primary aqueous humor). Then, after an interval of 1.5 hours, the aqueous humor was collected again in the same manner (secondary aqueous humor). The protein content of each aqueous sample was determined by the method of Lowry and the increases in the amount of protein (protein content of secondary aqueous humor-protein content of primary aqueous humor) in the respective groups were compared to evaluate the antiinflammatory effect of each test substance.

[1] = system: back skin of Hartly guinea pigs; assay: Inhibitory effect on ultraviolet-induced erythema; type: in vivo; parameters: key to Degree of erythema, After 1 hour, Right / Degree of erythema, After 1 hour, Left / Degree of erythema, After 2 hours, Right / Degree of erythema, After 2 hours, Left: 0: No erythema; 1: Slight erythema; 2: Erythema without a distinct margin; 3: Erythema with a distinct margin
Description: Method: The back hairs of Hartly guinea pigs were clipped with an electric clipper and shaved with an electric razor. Then, a cloth with two holes 11 mm in diameter and 4 cm apart was appliedto the back for positioning and a 1 (w/v) % aqueous solution of δ-EPC (adjusted to pH 6.0) and, as control, water were applied 3 times in 100 μl portions each at 1-hour intervals around the sites of said holes over an area 4 cm in diameter. One hour after the final application, said cloth with small holes was applied again and the exposed skin areas was irradiated with ultraviolet rays at 1700 luxes for 360 seconds. Then, after 1 and 2 hours, respectively, the back was grossly examined for erythema. […]
Erythema without a distinct margin
Erythema with a distinct margin

[2] = 1 (w/v) % aqueous solution pH 6.0, 3 x 100 μl, one animal per line, control 2, 2, 2, 2
[3] = 1 (w/v) % aqueous solution pH 6.0, 3 x 100 μl, one animal per line, control 2, 3, 2, 2

Structure (SMILES)	% Inhibition (rabbits eye) [%]	Increase in protein (rabbits eye)	Degree of erythema, After 1 hour, Left [1, 2]	Degree of erythema, After 2 hours, Left [1, 2]	Degree of erythema, After 1 hour, Right [1, 3]	Degree of erythema, After 2 hours, Right [1, 3]	antiinflammatory effect compared with the control group ([1]; UV-induced erythema, guinea pigs)
Cc1cc(OP(=O)(O)OC2=C(O)[C@@H]([C@@H](O)CO)OC2=O)c(C)c2c1OC(C)(CCCC(C)CCCC(C)CCCC(C)C)CC2 (mixture of isomers) [β-EPC, L-Ascorbyl DL-β-tocopheryl phosphate sodium]	37.3	16.0	–	–	–	–	–
Cc1c(OP(=O)(O)OC2=C(O)[C@@H]([C@@H](O)CO)OC2=O)cc2c(c1C)OC(C)(CCCC(C)CCCC(C)CCCC(C)C)CC2 (mixture of isomers) [γ-EPC, L-Ascorbyl DL-γ-tocopheryl phosphate sodium]	36.5	16.2	–	–	–	–	–
C[C@@H]1C[C@H]2[C@@H]3CCC4=CC(=O)C=C[C@]4(C)[C@@]3(F)[C@@H](O)C[C@]2(C)[C@@]1(O)C(=O)CO [DEX, Dexamethasone, reference compound]	18.4	20.8	–	–	–	–	–
Cc1cc(OP(=O)(O)OC2=C(O)[C@@H]([C@@H](O)CO)OC2=O)cc2c1O[C@](C)(CCC[C@H](C)CCC[C@H](C)CCCC(C)C)CC2 [δ-EPC, L-Ascorbyl D-δ-tocopheryl phosphate sodium]	40.0	15.3	0 and 1	0 and 1	1	1	significant antiinflammatory effect
